Reference: US20240336748A1, “A METHOD FOR PREPARING HYALURONIC ACID GRAFTED POLY(N-ISOPROPYLACRYLAMIDE) (HA-G-PNI-PAM)” (NABSOLUTE COMPANY LIMITED, priority 2021, published 2024)

Tested on: fibroblast L929 cell
Experiment: Side effect test, toxic reduction of asiatic acid, PrestoBlue assay
Format: cell-based
Conditions: 12.5 μM asiatic acid dissolved in DMSO in cell culture media
Description: Side effect test of Sample 2 in colloid form at concentration of 0, 0.1, 0.15 and 0.25% w/v form was studied by considering the toxic reduction of asiatic acid in fibroblast L929 cell via PrestoBlue™ assay.

## C[C@H]1[C@H](C)CC[C@]2(C(=O)O)CC[C@]3(C)C(=CC[C@@H]4[C@@]5(C)C[C@@H](O)[C@H](O)[C@@](C)(CO)[C@@H]5CC[C@]43C)[C@H]12 [asiatic acid]
  Cell viability: 5%
